Measurements reported in US20240041765A1, “ORAL LIQUID SUSPENSION OF PAN-RAF KINASE INHIBITOR” (DAY ONE BIOPHARMACEUTICALS, INC., priority 2022, published 2024).

Experiment: Single oral dose mouse PK in male CD-1 mice
Type: in vivo
Conditions: plasma, single oral dose 50 mg/kg, Mean ± SD, n = 3, vehicle: Group 1 100% PEG400, Groups 2-3 DI water, Group 4 0.5% methylcellulose in water (w/v)
Description: Amorphous solid dispersions of Compound A in aqueous suspension formulations were administered via oral gavage in male CD-1 mice to assess Compound A plasma exposure. Pharmacokinetics (PK) of Compound A crystalline drug substance dissolved in organic solvent (PEG400) were used to generate a solution formulation—also included as the comparator group in this study. The concentrations of Compound A in mouse plasma were quantified with a qualified LC-MS/MS method.
Each oral dosing group consisted of 3 male CD-1 mice. At dosing, the animals weighted between 0.0297 to 0.0376 kg. Animals were not fasted prior to oral administration in this study. Compound A drug substances in corresponding dosing vehicles were administered by oral route using polypropylene gavage tube to CD-1 mice. Serial blood samples were collected at 0.25, 0.50, 1, 4, 8 and 24 hours post-dose. Serial blood samples were collected from a tail vein or another approved method at 0.25, 0.50, 1, 4, 8 hours post-dose. Terminal blood collection were collected via cardiac puncture at 24 hours post-dose.
Blood samples were collected into K2EDTA tubes according to in-life study protocol and immediately placed on wet ice and then centrifuged for 10 minutes at 3500 rpm for plasma preparation. All plasma samples were placed in 96-well strip-tube rack and stored in freezer until plasma analysis. Immediately following terminal blood collection, the brain tissue was collected for each animal. Each tissue was collected into pre-weighed tube and the weight of the tissue sample was determined. Samples were flash frozen and kept on dry ice until stored at −70° C. prior to sample processing and analysis. Table 27 provides the study design for the oral administration of Compound A in mice and summary of mouse PK parameters.
Non compartmental pharmacokinetic (NCA) analysis was performed on plasma concentration data using WinNonlin module in the Phoenix Platform (version 8.3.1 or above, Certara Inc., Princeton, NJ 08540). Calculations were performed using nominal sampling times in the pharmacokinetic analysis. All pharmacokinetic parameters and summary statistics are reported to 3 significant digits except for Tmax, which is reported to 2 decimal places. • Cmax: Observed peak blood/plasma concentration • Tmax: Time to reach observed peak blood/plasma concentration • kel: Elimination rate constant determined by linear regression analysis of selected time points in the apparent terminal phase of the log plasma concentration vs. time curve (not reported) • t1/2: Apparent terminal half-life calculated as ln(2)/kel • MRT: Mean time a drug molecule resides in body • AUC0-last: Area under the plasma concentration vs. time curve from 0 to the last quantifiable concentration calculated by the linear trapezoidal method • AUC0-inf: Area under the plasma concentration vs. time curve from 0 h to infinity, calculated as AUC0-last+Clast/kel

Compound `C[C@@H](NC(=O)c1ncnc(N)c1Cl)c1ncc(C(=O)Nc2cc(C(F)(F)F)c(Cl)cn2)s1` [DAY 101 API] has an AUC0-inf of 407 ± 20.4 µg·h/mL, an AUC0-last of 300 ± 24.7 µg·h/mL and a Cmax of 18300 ± 1510 ng/mL. The MRTlast was 9.42 ± 0.573 h, the Tmax was 8.00 ± 0.00 h and the t1/2 was 12.7 ± 2.30 h.
